Source: paper PMC12661293 (RSC Advances, 2025)

Legend:
[1] = molecular target: α-glucosidase (Saccharomyces cerevisiae, UniProt P53341); experiment: In vitro α-glucosidase inhibitory assay; format: biochemical; settings: for inhibition at 10 µM: read-out: %Inhibition at 10 µM; for inhibition at 40 µM: read-out: %Inhibition at 40 µM; for inhibition at 100 µM: read-out: %Inhibition at 100 µM; for inhibition at 140 µM: read-out: %Inhibition at 140 µM; for inhibition at 350 µM: read-out: %Inhibition at 350 µM; for inhibition at 400 µM: read-out: %Inhibition at 400 µM; for inhibition at 500 µM: read-out: %Inhibition at 500 µM
α-glucosidase, sequence (P53341 whole entry): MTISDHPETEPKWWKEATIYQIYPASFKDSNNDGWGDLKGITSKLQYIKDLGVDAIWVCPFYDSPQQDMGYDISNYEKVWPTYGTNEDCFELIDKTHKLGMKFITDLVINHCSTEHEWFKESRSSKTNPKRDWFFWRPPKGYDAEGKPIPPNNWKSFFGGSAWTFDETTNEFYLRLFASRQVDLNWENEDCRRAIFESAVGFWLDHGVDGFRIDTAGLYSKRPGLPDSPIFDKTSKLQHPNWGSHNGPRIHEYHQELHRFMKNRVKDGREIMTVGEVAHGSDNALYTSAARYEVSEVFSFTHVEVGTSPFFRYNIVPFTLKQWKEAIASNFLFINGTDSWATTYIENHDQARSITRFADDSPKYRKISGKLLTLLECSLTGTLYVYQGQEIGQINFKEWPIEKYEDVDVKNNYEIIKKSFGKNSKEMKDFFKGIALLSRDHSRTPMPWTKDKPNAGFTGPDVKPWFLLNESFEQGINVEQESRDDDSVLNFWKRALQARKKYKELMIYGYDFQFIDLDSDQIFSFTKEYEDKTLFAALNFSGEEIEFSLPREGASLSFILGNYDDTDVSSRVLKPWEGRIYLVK

[2] = molecular target: T1, α-amylase (Sus scrofa, UniProt P00690); experiment: In vitro α-amylase inhibitory assay; format: biochemical, porcine; settings: for inhibition at 10 µM: read-out: %Inhibition at 10 µM; for inhibition at 40 µM: read-out: %Inhibition at 40 µM; for inhibition at 80 µM: read-out: %Inhibition at 80 µM; for inhibition at 140 µM: read-out: %Inhibition at 140 µM; for inhibition at 260 µM: read-out: %Inhibition at 260 µM; for inhibition at 400 µM: read-out: %Inhibition at 400 µM; for inhibition at 500 µM: read-out: %Inhibition at 500 µM
T1 sequence (P00690 16-511): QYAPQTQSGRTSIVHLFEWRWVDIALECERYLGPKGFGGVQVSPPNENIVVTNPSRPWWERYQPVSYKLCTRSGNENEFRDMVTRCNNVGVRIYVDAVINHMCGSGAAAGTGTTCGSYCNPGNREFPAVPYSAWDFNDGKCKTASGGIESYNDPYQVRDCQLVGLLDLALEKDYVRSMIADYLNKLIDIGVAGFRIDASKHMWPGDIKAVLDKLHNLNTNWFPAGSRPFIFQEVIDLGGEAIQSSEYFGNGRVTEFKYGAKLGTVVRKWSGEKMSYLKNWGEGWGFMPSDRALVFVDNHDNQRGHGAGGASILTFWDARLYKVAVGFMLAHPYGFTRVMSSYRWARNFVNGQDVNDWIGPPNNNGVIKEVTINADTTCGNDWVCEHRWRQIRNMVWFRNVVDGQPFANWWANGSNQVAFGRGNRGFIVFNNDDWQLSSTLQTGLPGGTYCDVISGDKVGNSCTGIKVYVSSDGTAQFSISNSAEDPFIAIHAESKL

[3] = tested on: ct-DNA; experiment: Spectrophotometric; format: binding, calf; settings: ligand fixed 50 µM, ct-DNA 0–80 µM, phosphate buffer pH 7.2
[4] = tested on: EB-ct-DNA; experiment: Ethidium bromide displacement fluorescence quenching with ct-DNA; format: binding, calf
[5] = tested on: ct-DNA; experiment: Cyclic voltammetry of ligands with ct-DNA; format: binding, calf; settings: increasing ct-DNA 10–80 µM, phosphate buffer pH 7.2

SMILES | IC50 [1] [µM] | inhibition at 10 µM [1] [%] | inhibition at 40 µM [1] [%] | inhibition at 100 µM [1] [%] | inhibition at 140 µM [1] [%] | inhibition at 350 µM [1] [%] | inhibition at 400 µM [1] [%] | inhibition at 500 µM [1] [%] | inhibition at 10 µM [2] [%] | inhibition at 40 µM [2] [%] | inhibition at 80 µM [2] [%] | inhibition at 140 µM [2] [%] | inhibition at 260 µM [2] [%] | inhibition at 400 µM [2] [%] | inhibition at 500 µM [2] [%] | also measured
Cc1c(C(=O)C=Cc2ccc(Cl)cc2Cl)cnn1-c1ccccc1 [L^II, 3-(2,4-dichlorophenyl)-1-(5-methyl-1-phenyl-1H-pyrazol-4-yl)prop-2-en-1-one] | 215 |  |  |  |  |  |  |  |  |  |  |  |  |  |  | 
Cc1c(C(=O)C=Cc2cccc([N+](=O)[O-])c2)cnn1-c1ccccc1 [L^III, 1-(5-methyl-1-phenyl-1H-pyrazol-4-yl)-3-(3-nitrophenyl) prop-2-en-1-one] | 281 | 9.36 | 10.8 | 21.4 | 32.4 | 67 | 71.5 | 74.1 | 9.1 | 9.5 | 11 | 12 | 16.8 | 26 | 28.9 | IC50 ([2]; IC50 α-amylase): 984 µM; Binding constant (kb) [3]: 15590 M⁻¹; Interaction mode [3]: Intercalative; Quenching constant (Ksv) ([4]; Stern–Volmer): 3030 M⁻¹; Binding constant (Kb) ([4]; modified Stern–Volmer): 4315.8 M⁻¹; Binding mode from cyclic voltammetry [5]: intercalation
Cc1cccc(C=CC(=O)c2cnn(-c3ccccc3)c2C)c1 [L^I, 1-(5-methyl-1-phenyl-1H-pyrazol-4-yl)-3-(m-tolyl)prop-2-en-1-one] | 394 |  |  |  |  |  |  |  |  |  |  |  |  |  |  | 
C[C@H]1O[C@H](O[C@H]2[C@H](O)[C@@H](O)[C@@H](O[C@H]3[C@H](O)[C@@H](O)C(O)O[C@@H]3CO)O[C@@H]2CO)[C@H](O)[C@@H](O)[C@@H]1N[C@H]1C=C(CO)[C@@H](O)[C@H](O)[C@H]1O (stereo partly shown) [Acarbose, acarbose, reference compound] |  | 2.9 | 9.44 | 13 | 16.2 | 81.2 | 97.2 | 97.7 | 1.2 | 1.6 | 6 | 26.4 | 39.8 | 65.1 | 74.8 | 
